Where “and” joins values, the source holds several entries; their conditions need not be identical. Equal entries are not always repeated.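 Each compound was tested at five concentrations against cells in 96-well plates for 48 hours. Here, GI50 denotes the concentration required for 50% inhibition of growth. At the TGI there is no net growth.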
Key:
Test in all cases: NCI anticancer screen, dose series, 48 h
[1] = system: K-562 leukemia
[2] = system: SK-OV-3 ovarian
[3] = system: HCT-15 colon
[4] = system: SNB-19 CNS
[5] = system: A549 NSCLC
[6] = system: RPMI-8226 leukemia
[7] = system: MALME-3M melanoma
[8] = system: UACC-257 melanoma
[9] = system: SNB-75 CNS
[10] = system: HT29 colon

Compound | TGI [1] | TGI [2] [µM] | TGI [3] [µM] | TGI [4] [µM] | TGI [5] [µM] | TGI [6] | TGI [7] [µM] | TGI [8] | TGI [9] [µM] | TGI [10] [µM] | GI50 [1] [µM] | GI50 [2] | GI50 [3] | GI50 [4] | GI50 [5] | GI50 [6] [µM] | GI50 [7] [µM] | GI50 [8] [µM] | GI50 [9] | GI50 [10]
CSc1ccc(Cc2cc(C(C)(C)C)cc(C(C)(C)C)c2O)cc1 | 26.6 µM | 42.4 | 27.6 | 29.9 | 27.3 | 20.8 µM | 28.7 | 28.2 µM | 29.7 | 27.5 |  |  |  |  |  |  |  |  |  | 
COc1ccc(-c2c(NC(=O)Nc3ccc(Cl)c(C(F)(F)F)c3)cnn2-c2ccc(S(N)(=O)=O)cc2)cc1 | 16.9 µM | 14 | 14.4 | 14.7 | 13.6 | 13.5 µM | 7.72 | 12 µM | 13.3 | 10.9 | 3.13 | 3.69 µM | 3.63 µM | 3.85 µM | 3.46 µM | 3.14 | 2.51 | 3.29 | 2.3 µM | 3.59 µM
CC(=O)OC1CC2C(C)(C)C(=O)C=C[C@]2(C)C2CCC3(C)C(c4ccoc4)C(=O)C4OC43[C@]12C (stereo partly specified) | 32.6 µM | 43.6 | 29.9 | 80.7 | 46 | 22.5 µM | 40.3 | 35.1 µM | 75.3 | 32.1 |  |  |  |  |  |  |  |  |  | 
C[N+]1(CCNP(=S)(NCC[N+]2(C)Cc3c(ccc4c3OCO4)C3C2c2cc4c(cc2C[C@@H]3O)OCO4)NCC[N+]2(C)Cc3c(ccc4c3OCO4)C3C2c2cc4c(cc2C[C@@H]3O)OCO4)Cc2c(ccc3c2OCO3)C2C1c1cc3c(cc1C[C@H]2O)OCO3 (stereo partly specified) |  |  | < 0.00191 |  |  | < 0.00191 µM |  |  |  |  | 2.32 | 2.96 µM |  | 7.66 µM | 2.89 µM |  | 2.09 | 1.44 | 1.18 µM | 1.34 µM
COc1ccc(-c2oc3ncnc(N)c3c2-c2ccc(NC(=O)Nc3cc(C(F)(F)F)ccc3F)cc2)cc1 | 16.6 µM | 5.09 | 6.65 | 12.2 | 3.43 | 10.1 µM | 6.22 | 6.69 µM | 4.35 | 3.12 | 1.19 | 0.894 µM | 1.04 µM | 1.61 µM | 0.762 µM | 2.26 | 1.81 | 2.46 | 1.51 µM | 0.844 µM
COC(=O)[C@@H](C)C[C@H](Cc1ccc(F)cc1)NC(=O)c1csc([C@@H](C[C@H](C(C)C)N(C)C(=O)[C@@H](NC(=O)[C@H]2CCCCN2C)C2CC2)OC(C)=O)n1 | > 25 µM | > 25 | > 25 | > 25 | > 25 | > 25 µM | > 25 | > 25 µM | > 25 | > 25 | 0.0605 | 5.39 µM | 0.828 µM | 0.164 µM | 0.959 µM | 0.104 | 0.569 | > 15.5 | 0.174 µM | 0.107 µM
Cc1ccc(NC(=O)CCc2nnc3s/c(=C\C=C\c4ccccc4)c(=O)n23)cc1 | > 100 µM | > 100 | > 100 | > 100 | > 100 | > 82.1 µM | > 100 | > 100 µM | > 100 | > 100 |  |  |  |  |  |  |  |  |  | 
NC1=C(O)/C(=N/NS(=O)(=O)c2ccccc2)C(c2ccc3c(c2)OCO3)O1 (stereo unspecified) | > 100 µM | > 100 | > 100 | > 100 | > 100 | > 100 µM | > 100 | > 100 µM | > 100 | > 100 |  |  |  |  |  |  |  |  |  | 
Oc1cccc2cccnc12 | 21.7 µM and > 100 µM and > 23.3 µM | > 100 | > 100 | > 100 | > 100 | 1.07 µM and 4.31 µM | > 100 | 27.3 µM and > 100 µM and > 27.8 µM | > 100 | > 100 |  | 42.2 µM and 46.1 µM and > 100 µM | 2.04 µM and 5.51 µM and 2.52 µM | 23.6 µM and 96.4 µM and 38.9 µM | 6.17 µM and 16.4 µM and 5.97 µM | 0.2 |  |  | 44 µM and 18.4 µM | 3.53 µM and 13.8 µM and 4.64 µM
COc1ccc(NC(=O)c2ccc(C(F)(F)F)nc2Nc2ccc(Cl)cc2C)cc1Cl | 10.6 µM | 18.6 | 20.5 | 19.7 | 20.6 | 4.88 µM | 40.1 | 24 µM | 23.9 | 14 | 2.42 | 4.67 µM | 7.12 µM | 5.45 µM | 5.39 µM | 2.07 | 15.7 | 10.8 | 6.47 µM | 3.57 µM
O=C(NC1CCCCC1)NC12CC3CC(CC(F)(C3)C1)C2 | > 100 µM | > 100 |  | > 100 | > 100 | > 100 µM | > 100 | > 100 µM | > 100 | > 100 |  |  |  |  |  |  |  |  |  | 
COc1cc(OCCCN2CCCC2)ccc1Nc1ncc(Cl)c(Nc2ccccc2P(C)(C)=O)n1 | 28.5 µM | 6.41 | > 46.6 | 34.3 | 10.6 | 12.2 µM | 22.6 | 24 µM | 11.8 | 3.79 | 4.43 | 2.3 µM | 3.67 µM | 4.11 µM | 2.14 µM | 2.68 | 6.06 | 6.42 | 2.55 µM | 0.521 µM
CC(=O)NNc1ncc(C(=O)/C=C/c2ccccc2C)s1 | > 100 µM | > 100 |  | > 100 | > 100 | > 100 µM | > 100 | > 100 µM | > 100 | > 100 |  |  |  |  |  |  |  |  |  | 
CC1(C)N=C(N)N=C(N)N1c1cccc(CCCCc2ccc(Cl)c(S(=O)(=O)F)c2)c1 | 15.2 µM | 27.8 | > 100 | 18.4 | 36 | 25.1 µM | 28.3 | 18.7 µM | 22.4 | 16.3 | 0.521 | 11.7 µM | 6.47 µM | 3.3 µM | 4.38 µM | 4.97 | 9.71 | 1.14 | 10.3 µM | 0.441 µM
O=C(O)C(Cc1ccccc1)N=Cc1nc(-c2ccccc2)oc1O (stereo unspecified) | > 100 µM | > 100 | > 100 | > 100 | > 100 | > 100 µM | > 100 | > 100 µM | > 100 | > 100 |  |  |  |  |  |  |  |  |  | 
COc1nc2c(c(=O)n1C)CN(c1ccccc1)C(=O)CN2C | > 100 µM | > 100 | > 100 | > 100 | > 100 | > 100 µM | > 100 | > 100 µM | > 100 | > 100 | 59.7 | > 100 µM | 56.7 µM | 60.4 µM | > 100 µM | 72.6 | 46.7 | > 100 | 48.9 µM | 60.9 µM
O=C(/C=C/c1ccc(-c2ccccc2)cc1)c1ccccc1 | > 100 µM | 58.5 | 54.9 |  | 56.3 | 61.8 µM | > 100 | > 100 µM | > 100 | 52.1 |  |  |  |  |  |  |  |  |  | 
Oc1c(CN2CCCCC2)ccc2cccnc12 | > 100 µM | 25 | 82.9 | > 100 | 28.1 | 31 µM | 52.5 | 83.3 µM | 74.3 | 19.6 | 3.63 | 4.33 µM | 0.728 µM | 8.86 µM | 3.72 µM | 3.71 | 7.18 | 2.91 | 5.67 µM | 4.88 µM
C/C(=N\NC(=O)c1ccccc1O)c1c(O)cc(C)oc1=O | > 100 µM | 86.7 | > 100 | > 100 | > 100 | > 100 µM | > 100 | > 100 µM | > 100 | > 100 |  |  |  |  |  |  |  |  |  | 
O=C(Nc1ccc(Cl)cc1)c1cc(NCc2cc(O)ccc2O)ccc1O | 8.53 µM | 60.7 | 6.01 | 21.2 | 44 | 4.41 µM | 16.8 | 30.3 µM | 8.99 | 58.5 | 2.65 | 25 µM | 1.81 µM | 8.33 µM | 18.4 µM | 0.57 | 4.34 | 15.7 | 1.99 µM | 22.2 µM
OCC1CC2C=CCC(C2)C1 (stereo unspecified) | > 100 µM | > 100 |  | > 100 | > 100 | > 100 µM | > 100 | > 100 µM | > 100 | > 100 |  |  |  |  |  |  |  |  |  | 
CCCCNC(=O)Oc1ccc(/C(=C(\C)c2ccc(OC)cc2)c2ccc(OCCN3CCCCC3)cc2)cc1 | 4.65 µM | 25 | 4.52 | 15.2 | 16 | 5.13 µM | 3.31 | 6.71 µM | 25 | 6.77 | 1.49 | 7.63 µM | 1.67 µM | 3.95 µM | 4.15 µM | 2.14 | 1.74 | 2.72 | 6.91 µM | 0.873 µM
N#Cc1c(N)c(C(=O)c2ccc3c(c2)OCCO3)n2c1CCCC2 | > 100 µM | > 38.3 | > 100 | > 100 | > 100 | > 100 µM | > 100 |  | 7.48 | > 100 | 0.638 | 5.47 µM | 1.04 µM | 6.3 µM | 4.27 µM | 3.93 | 2.6 |  | 1.8 µM | 2.23 µM
